Among the test systems are DLD-1 colon; TK-10 renal; LXFL 529 NSCLC; DMS 114 small cell lung; BT-549 breast; SF-268 CNS; MDA-N; A549 NSCLC; DMS 273 small cell lung; M19-MEL melanoma; OVCAR-3 ovarian; SNB-75 CNS; PC-3 prostate; SR leukemia; SNB-78 CNS; KM20L2 colon.
Holding throughout (test): NCI anticancer screen, dose series, 48 h

Results on 12 compounds are retold here after PubChem BioAssay (NCI).

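Compound exposure: 48 hours, 5 concentrations, 96-well plates. The concentration for full growth arrest is given as TGI.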

`Cc1ccc(S(=O)(=O)C2=c3ncccc3=C3C(=O)c4ccccc4C(=O)C32)cc1` (stereo not drawn): the TGI was above 100 µM with DLD-1 colon; above 71.3 µM with TK-10 renal; above 100 µM in the experiment on LXFL 529 NSCLC; above 100 µM in the experiment on DMS 114 small cell lung; above 88.6 µM in the experiment with BT-549 breast; above 90.3 µM with SF-268 CNS. Besides, the TGI with MDA-N, in the experiment on A549 NSCLC, in the experiment with DMS 273 small cell lung, in the experiment with M19-MEL melanoma, with OVCAR-3 ovarian and with SNB-75 CNS was above 100 µM each time. For the same compound, the TGI in the experiment on PC-3 prostate, in the experiment on SR leukemia and with SNB-78 CNS was above 100 µM throughout.

As to `C(/COc1cccnc1)=N\NC1=NCCN1`, the TGI with DLD-1 colon, in the experiment with TK-10 renal, in the experiment with LXFL 529 NSCLC, in the experiment with DMS 114 small cell lung, in the experiment on SF-268 CNS and in the experiment with A549 NSCLC was above 100 µM throughout. Also, the TGI in the experiment on DMS 273 small cell lung, in the experiment on M19-MEL melanoma, with OVCAR-3 ovarian, with SNB-75 CNS, with SR leukemia and in the experiment on KM20L2 colon was above 100 µM each time. In the experiment on SNB-78 CNS, the TGI was above 100 µM.

Regarding `CCC(C)(C)NC1=C(NC(C)=O)C(=O)c2ccccc2C1=O`, the TGI with DLD-1 colon, in the experiment with TK-10 renal, in the experiment on LXFL 529 NSCLC, in the experiment with SF-268 CNS, in the experiment on A549 NSCLC and with DMS 273 small cell lung was above 75 µM each time. Further, the TGI in the experiment on M19-MEL melanoma is 23.7 µM; in the experiment with OVCAR-3 ovarian it was above 75 µM; with SNB-75 CNS, above 75 µM; in the experiment on SR leukemia it was above 75 µM; in the experiment with KM20L2 colon it was above 75 µM; in the experiment with SNB-78 CNS it was above 75 µM.

Regarding `Cc1[nH]n(-c2ccccc2)c(=S)c1C(=O)c1ccccc1`, the TGI with DLD-1 colon is 60.9 µM; in the experiment on TK-10 renal it was 94.4 µM; in the experiment with LXFL 529 NSCLC, 37.2 µM; with DMS 114 small cell lung it was 99.1 µM; with SF-268 CNS, above 100 µM; in the experiment with A549 NSCLC, above 100 µM. For the same compound, the TGI with DMS 273 small cell lung is above 100 µM; in the experiment on SNB-75 CNS, above 100 µM; in the experiment on KM20L2 colon, above 100 µM; in the experiment on SNB-78 CNS it was 64.8 µM.

As for `c1ccc2cc3n[se]nc3cc2c1`, the TGI in the experiment on DLD-1 colon, in the experiment on TK-10 renal, in the experiment with LXFL 529 NSCLC, in the experiment on DMS 114 small cell lung, in the experiment with SF-268 CNS and in the experiment with A549 NSCLC was above 100 µM each time. For the same compound, the TGI in the experiment with DMS 273 small cell lung, with SNB-75 CNS, in the experiment with KM20L2 colon and in the experiment with SNB-78 CNS was above 100 µM in each case.

On to `C=C1C(=O)C=C2C=C3C(=O)C(C)(C)C[C@]3(O)C12C` (stereo partly drawn), for which the TGI in the experiment with TK-10 renal was determined as 3.42 µM; in the experiment with LXFL 529 NSCLC, 2.64 µM; in the experiment with DMS 114 small cell lung, 3.61 µM; in the experiment with BT-549 breast it was 3.05 µM; in the experiment on SF-268 CNS, 28.2 µM; in the experiment on MDA-N, 13.5 µM. Also, the TGI was found to be 40.4 µM in the experiment on A549 NSCLC; 14 µM in the experiment on DMS 273 small cell lung; 11.3 µM in the experiment on M19-MEL melanoma; 4.49 µM in the experiment with OVCAR-3 ovarian; 31.4 µM with SNB-75 CNS; 10.2 µM with PC-3 prostate. Also, the TGI with SR leukemia turned out to be 2.28 µM; in the experiment on SNB-78 CNS it was 21 µM.

For `C[n+]1c2ccccc2c(NC(CCC(N)=O)C(=O)O)c2ccccc21` (stereo not drawn), the TGI in the experiment on DLD-1 colon, with TK-10 renal, in the experiment on LXFL 529 NSCLC, in the experiment on DMS 114 small cell lung, with SF-268 CNS and with A549 NSCLC was above 100 µM each time. For the same compound, the TGI with DMS 273 small cell lung, in the experiment on M19-MEL melanoma, in the experiment on OVCAR-3 ovarian, in the experiment on SNB-75 CNS, in the experiment with SR leukemia and in the experiment on KM20L2 colon was above 100 µM throughout. Besides, the TGI in the experiment with SNB-78 CNS was above 100 µM.

As to `CC(C)NC(C)Cc1ccccc1` (stereo not drawn), the TGI with DLD-1 colon, in the experiment with TK-10 renal, in the experiment on LXFL 529 NSCLC, with DMS 114 small cell lung, in the experiment on SF-268 CNS and in the experiment on A549 NSCLC was above 100 µM throughout. The TGI in the experiment with DMS 273 small cell lung, in the experiment on M19-MEL melanoma, in the experiment with OVCAR-3 ovarian, with SNB-75 CNS, in the experiment with SR leukemia and with KM20L2 colon was above 100 µM each time. The compound also returned a TGI with SNB-78 CNS above 100 µM.

`CCC12C=CCN3CC[C@]4(C(=C(C(=O)OC)[C@@H]1Nc1ccn(C5OC(COC(C)=O)C(OC(C)=O)C5OC(C)=O)c(=O)n1)Nc1ccccc14)C32` (stereo partly drawn): the TGI was determined as 9.14 µM in the experiment with DLD-1 colon; 10.1 µM in the experiment on TK-10 renal; 8.94 µM in the experiment with LXFL 529 NSCLC; 10.9 µM in the experiment with SF-268 CNS; 15.1 µM with A549 NSCLC; 8.54 µM in the experiment on DMS 273 small cell lung. The TGI with M19-MEL melanoma amounted to 7.45 µM; with OVCAR-3 ovarian, 7.8 µM; with SNB-75 CNS it was 7.63 µM; in the experiment on SR leukemia, 10.2 µM; in the experiment with KM20L2 colon, 8.19 µM; with SNB-78 CNS, 13.8 µM.

In the case of `CCOc1ccc(N=Cc2cc(OC)c(OC)c(OC)c2)cc1`, the TGI with DLD-1 colon, in the experiment with TK-10 renal, in the experiment on LXFL 529 NSCLC, in the experiment with DMS 114 small cell lung, in the experiment on SF-268 CNS and in the experiment on A549 NSCLC was above 100 µM each time. Further, the TGI in the experiment with DMS 273 small cell lung, with M19-MEL melanoma, with OVCAR-3 ovarian, with SNB-75 CNS, with KM20L2 colon and in the experiment with SNB-78 CNS was above 100 µM in each case.

Consider `Cc1ccc2c(c1)NC(=O)C(N=[N+]=[N-])(c1ccccc1)C2=O` (stereo not drawn), for which the TGI is above 100 µM with DLD-1 colon; above 100 µM in the experiment on TK-10 renal; 66.1 µM with LXFL 529 NSCLC; 81.1 µM with DMS 114 small cell lung; above 100 µM in the experiment on SF-268 CNS; above 100 µM in the experiment on A549 NSCLC. For the same compound, the TGI in the experiment on DMS 273 small cell lung was 28.6 µM; with M19-MEL melanoma, 40 µM; in the experiment on OVCAR-3 ovarian, 37.7 µM; with SNB-75 CNS, above 100 µM; in the experiment with SR leukemia it was 56.7 µM; in the experiment with KM20L2 colon it was 74.6 µM. For the same compound, the TGI in the experiment with SNB-78 CNS was found to be 64.3 µM.

Regarding `Cc1c2n(c3ccccc13)CC1C2N(C)OC1(C)C` (stereo not drawn), the TGI with DLD-1 colon, in the experiment with DMS 114 small cell lung, with SF-268 CNS, in the experiment on A549 NSCLC, with DMS 273 small cell lung and with M19-MEL melanoma was above 100 µM each time. Also, the TGI in the experiment with OVCAR-3 ovarian, in the experiment with SNB-75 CNS, in the experiment on SR leukemia, in the experiment with KM20L2 colon and with SNB-78 CNS was above 100 µM in each case.
